Columns and labels:
MDA-MB-468 cells [1] = assay: MTT in vitro cytotoxicity assay, triple negative breast cancer cells; type: cell-based; conditions: MDA-MB-468, MTT, 48 h
Protocol: The in vitro cytotoxicity of complexes IrL1–IrL5 and cisplatin were investigated using the typical 3-(4,5-dimethylthiazol-2-yl)-2,5-diphenyltetrazolium bromide (MTT) assay protocol against a panel of triple negative cancer cell line MDA-MB-468. The cells were initially incubated with the all test compounds at concentrations ranging from 0.5–50 μM for 48 h in vitro.
Cytotoxicity study of all the synthesized compounds against triple negative breast cancer cells MDA-MB-468 and immortalized human keratinocyte cell line HaCaT were done with a drug incubation period of 48 h by following standard procedure that were mentioned in ESI. ^† Preliminary studies were done to understand the mode of action of the complex to induce cytotoxicity using flow cytometric methods.
For doing the cell culture the cells were retained in DMEM media (Gibco), added with 10% fetal bovine serum (Himedia, India), 1% penicillin and streptomycin and 1% of Glutmax (Gibco, Thermo Scientific, USA) at 37°C in 5% CO2. When the cells attained 70%-80% confluency they were trypsinized using 0.25% trypsin-EDTA (Thermo Fisher Scientific, […]
In vitro cytotoxicity study was measured by standard MTT assay protocol.1 First the prepared complexes (IrL1-IrL5) were dissolved in 0.1% DMSO followed by dilution with DMEM medium. One cancer cell lines i.e. triple negative breast cancer cells (MDA-MB-468) and one normal cell line i.e. immortalized human keratinocyte cell line (HaCaT) were used for this assay. Approximately 1×10^4 cells per well were cultured in 100 μl of a growth medium in 96-well plates and then incubated under 5% CO2 atmosphere at 37°C temperature. Then the incubated cells were treated with different concentrations of the complexes in the volume of […]. The cisplatin was taken as standard positive control for this experiment. The Cells which were in the control wells, also engaged the same volume of medium containing 0.1% DMSO. After 48 h, the medium was superfluous and cell cultures were again incubated with 100 μL of MTT reagent (1 mg/ml) for 5 h at 37 °C. Then the resultant suspension was kept on micro vibrator for 10 min and the absorbance was recorded at λ = 570 nm in ELISA plate reader. The experiment was also performed in triplicate. The data were represented as the growth inhibition percentage i.e. % growth inhibition = 100 − [(AD × 100)/AB], where AD, measured absorbance in wells which contain samples and AB, measured absorbance for blank wells (cells with a medium and a vehicle). […]

[2] = n-Octanol/water partition coefficient, shake flask method; type: physicochemical
Protocol: Both hydrophilicity and lipophilicity studies were performed to determine the tumour-inhibiting potential of the metal complexes. These complexes were highly soluble in DMSO and moderately soluble in H2O, MeOH, EtOH and CH3CN. […] The lipophilicity of these complexes was determined by performing an n-octanol/water partition coefficient (log Po/w, where Po/w = the octanol/water partition coefficient) study using the shake flask method (Table 1).[24] The experimental log Po/w values of these complexes were determined to be in the range of 0.27–0.34 (Table 1). […] This change in the electrolytic behaviour of the complexes from 1 : 1 to 1 : 2 can be attributed to the dissociation of the Ir–Cl bond and subsequent aquation of the complexes. […]
n-Octanol–water partition coefficient (log P o/w)9
The log Po/w of the iridium complexes were adhering to shake flask method using the previously published procedure. A known amount of each complex (IrL1-IrL5) was suspended in water (pre-saturated with n-octanol) and shaken for 48 h on an orbital shaker.
To allow the phase separation, the solution was centrifuged for 10 min at 3000 rpm. To obtain the partition coefficient, different ratios (0.5: 1, 1: 1, and 2: 1) of the saturated solutions were shaken with pre-saturated n-octanol for 20 min on an orbital shaker and followed the same procedure. Aliquots of the aqueous and octanol layers were pipetted out separately and the absorbances were measured with UV-Vis spectrophotometer using proper dilution. Each set was performed in triplicate, concentration of the substances in each layer was calculated using the respective molar extinction coefficients and the partition coefficient (log P o/w) values were obtained from the ratio.

Solubility study = type: physicochemical; conditions: DMSO-10% DMEM medium (1 : 99 v/v, comparable to cell media)
Protocol: Both hydrophilicity and lipophilicity studies were performed to determine the tumour-inhibiting potential of the metal complexes. These complexes were highly soluble in DMSO and moderately soluble in H2O, MeOH, EtOH and CH3CN. […] The lipophilicity of these complexes was determined by performing an n-octanol/water partition coefficient (log Po/w, where Po/w = the octanol/water partition coefficient) study using the shake flask method (Table 1).[24] The experimental log Po/w values of these complexes were determined to be in the range of 0.27–0.34 (Table 1). […] This change in the electrolytic behaviour of the complexes from 1 : 1 to 1 : 2 can be attributed to the dissociation of the Ir–Cl bond and subsequent aquation of the complexes.

MDA-MB-468 cells [3] = assay: ROS generation, DCFDA staining; type: cell-based; conditions: positive control
Protocol: Our results indicated a dose dependent increase in ROS production in the MDA-MB-468 cells treated with IrL1 concentrations 1 μM and 3 μM. The extent of ROS production is indicated by the 2′,7′-dichlorofluorescein (DCF) formed by the deacetylation and subsequent oxidation of 2′,7′-dichlorofluorescin diacetate (DCFDA) through cellular esterases and ROS. […] ROS production was absent in untreated control. However, in the positive control, treated with H2O2, ROS production was high which is ∼99% (Fig. 11).
Colocalization study and ROS generation studies were performed using live cell lines in their log phase.

MDA-MB-468 cells [4] = assay: Mitochondrial membrane potential, JC-1 staining, flow cytometry; type: cell-based; conditions: positive control
Protocol: The cells treated with the mitochondrial uncoupler CCCP (carbonyl cyanide m-chlorophenylhydrazone), which mediates the dissipation of mitochondrial membrane potential, served as positive control for the detection of mitochondrial dysfunction. […] Unstained control represented in Fig. 10A has been used for gating purposes. […]

log P (n-octanol/water partition coefficient) [2] | Solubility (Solubility study) | Compound | IC50 (MDA-MB-468 cells [1]) | ROS production (MDA-MB-468 cells [3]) | cells retaining healthy mitochondria (JC-1 aggregates) (MDA-MB-468 cells [4]) | cells with damaged mitochondria (JC-1 monomers) (MDA-MB-468 cells [4])
0.34 ± 0.07 | 600 µM | [Iridium(III)-Cp*-2-(anthracen-1-yl)-1H-imidazo[4,5-f][1,10]phenanthroline]PF6 [IrL2] | 20.4 µM |  |  | 
0.02 ± 0.05 | 900 µM | [Iridium(III)-Cp*-2-((3aR,7aR)-3a,7a-dihydro-1H-indol-3-yl)-1H-imidazo[4,5-f][1,10]phenanthroline]PF6 [IrL4] | 5.2 µM |  |  | 
 |  | OO [H2O2, reference compound] |  | ~99% |  | 
0.29 ± 0.08 | 700 µM | [Iridium(III)-Cp*-2-((3aR,7aR)-3a,7a-dihydrobenzo[b]thiophen-2-yl)-1H-imidazo[4,5-f][1,10]phenanthroline]PF6 [IrL5] | 4.41 µM |  |  | 
−0.23 ± 0.2 | 1200 µM | [Iridium(III)-Cp*-3-(1H-imidazo[4,5-f][1,10]phenanthrolin-2-yl)-4H-chromen-4-one]PF6 [IrL3] | 20.3 µM |  |  | 
 |  | N#CC(C#N)=NNc1cccc(Cl)c1 [CCCP, carbonyl cyanide m-chlorophenylhydrazone, reference compound] |  |  | ~20% | ~79%

From paper PMC9016803, “Mitochondria-targeted half-sandwich iridium(III)-Cp*-arylimidazophenanthroline complexes as antiproliferative and bioimaging agents against triple negative breast cancer cells MDA-MB-468” (RSC Advances, 2022)
